Reference: US8415342B2, “Besifloxacin ophthalmic composition for the treatment or control of infection” (Bausch & Lomb Incorporated, priority 2008, dated 2013)
≈ marks a conversion by molar mass, not a printed value. Read-outs that look alike come from different tables or passages of the source.

Columns and labels:
Format in all cases: cell-based
Anaerobic Bacteria = assay: MIC against anaerobic bacteria (Table 7)
Morganella morganii = assay: MIC, CLSI broth microdilution, clinical isolates; conditions: Morganella morganii (N = 51)
[1] = tested on: Lancefield group C, F, G streptococci; assay: MIC, CLSI broth microdilution, clinical isolates; conditions: G streptococci (N = 50)
[2] = tested on: Staphylococcus saprophyticus; assay: MIC, CLSI broth microdilution, clinical isolates; conditions: Staphylococcus saprophyticus (N = 101)
Staphylococcus warneri = assay: MIC, CLSI broth microdilution, clinical isolates; conditions: Staphylococcus warneri (N = 50)
[3] = tested on: Staphylococcus epidermidis; assay: MIC, CLSI broth microdilution, clinical isolates; conditions: for MIC50: Staphylococcus epidermidis
S. pneumoniae = assay: MIC and MBC:MIC ratio, recent ocular isolates; conditions: S. pneumoniae (N = 35)
Staphylococcus aureus = assay: MIC, CLSI broth microdilution, clinical isolates; conditions: for MIC50 / MIC90: Staphylococcus aureus
[4] = Clostridium perfringens, Clostridium perfringens (N = 21)
[5] = Staphylococcus epidermidis (CNS, N = 6)
[6] = Staphylococcus epidermidis (CS, N = 9)
[7] = Staphylococcus epidermidis (MSSE, N = 6)
[8] = Staphylococcus epidermidis (all phenotypes, N = 15)
[9] = Streptococcus pneumoniae, recent ocular isolates
[10] = Staphylococcus aureus (CNS, N = 16)
[11] = Staphylococcus aureus (CS, N = 14)
[12] = Staphylococcus aureus (all phenotypes, N = 30)
[13] = MRSA, Staphylococcus aureus (MRSA, N = 11)
[14] = MSSA, Staphylococcus aureus (MSSA, N = 19)

N[C@@H]1CCCCN(c2c(F)cc3c(=O)c(C(=O)O)cn(C4CC4)c3c2Cl)C1 [Besifloxacin, (R)-(+)-(3-amino-2,3,4,5,6,7-hexahydro-1H-azepin-1-yl)-8-chloro-1-cyclopropyl-6-fluoro-1,4,-dihydro-4-oxo-3-quinolinecarboxylic acid]
MIC50 (Anaerobic Bacteria; Bacteroides fragilis, Bacteroides fragilis (N = 20), read-out: MIC50): 0.5 µg/mL (≈ 1.27 µM)
MIC90 (Anaerobic Bacteria; Bacteroides fragilis, Bacteroides fragilis (N = 20), read-out: MIC90): 1 µg/mL (≈ 2.54 µM)
MIC Range (Anaerobic Bacteria; Clostridium perfringens (N = 21)): 0.12 to 0.25 µg/mL
MIC50 (Anaerobic Bacteria; [4]): 0.25 µg/mL (≈ 0.635 µM)
MIC90 (Anaerobic Bacteria; [4]): 0.25 µg/mL (≈ 0.635 µM)
MIC50 (Anaerobic Bacteria; Cutibacterium acnes, Propionibacterium acnes (N = 21), read-out: MIC50): 0.25 µg/mL (≈ 0.635 µM)
MIC90 (Anaerobic Bacteria; Cutibacterium acnes, Propionibacterium acnes (N = 21), read-out: MIC90): 0.25 µg/mL (≈ 0.635 µM)
MIC Range (Anaerobic Bacteria; Fusobacterium spp. (N = 21)): 0.12 to 8 µg/mL
MIC50 (Anaerobic Bacteria; Fusobacterium spp. (N = 21), read-out: MIC50): 0.25 µg/mL (≈ 0.635 µM)
MIC Range (Anaerobic Bacteria; Prevotella spp. (N = 20)): 0.06 to 16 µg/mL
MIC50 (Anaerobic Bacteria; Prevotella spp. (N = 20), read-out: MIC50): 1 µg/mL (≈ 2.54 µM)
MIC90 (Anaerobic Bacteria; Prevotella spp. (N = 20), read-out: MIC90): 4 µg/mL (≈ 10.2 µM)
MIC Range (Anaerobic Bacteria; Propionibacterium acnes (N = 21)): 0.12 to 0.25 µg/mL
MIC50 (Morganella morganii): 0.12 µg/mL (≈ 0.305 µM)
MIC90 (Morganella morganii): 4 µg/mL (≈ 10.2 µM)
MIC Range [1]: 0.015 to 0.25 µg/mL
MIC50 ([1]; read-out: MIC50): 0.03 µg/mL (≈ 0.0762 µM)
MIC90 ([1]; read-out: MIC90): 0.06 µg/mL (≈ 0.152 µM)
MIC50 [2]: 0.06 µg/mL (≈ 0.152 µM)
MIC90 [2]: 0.12 µg/mL (≈ 0.305 µM)
MIC Range [2]: 0.015 to 0.25 µg/mL
MIC50 (Staphylococcus warneri): 0.06 µg/mL (≈ 0.152 µM)
MIC90 (Staphylococcus warneri): 1 µg/mL (≈ 2.54 µM)
MIC Range (Staphylococcus warneri): 0.015 to 2 µg/mL
MIC Range [3, 5]: 0.25 to 4 µg/mL
MIC Range [3, 6]: 0.015 to 0.03 µg/mL
MIC Range ([3]; Staphylococcus epidermidis (MRSE, N = 9)): 0.015 to 4 µg/mL
MIC Range [3, 7]: 0.015 to 0.25 µg/mL
MIC90 [3, 8]: 4 µg/mL (≈ 10.2 µM)
MIC Range [3, 8]: 0.015 to 4 µg/mL
MIC50 ([3]; MRSE, Staphylococcus epidermidis (MRSE, N = 9)): 0.25 µg/mL (≈ 0.635 µM)
MIC50 [3, 5]: 0.25 µg/mL (≈ 0.635 µM)
MIC50 [3, 6]: 0.03 µg/mL (≈ 0.0762 µM)
MIC50 [3, 7]: 0.03 µg/mL (≈ 0.0762 µM)
MIC50 [3, 8]: 0.03 µg/mL (≈ 0.0762 µM)
% of isolates with MBC:MIC ratio 1 (S. pneumoniae): 60.0%
% of isolates with MBC:MIC ratio 2 (S. pneumoniae): 37.1%
% of isolates with MBC:MIC ratio 4 (S. pneumoniae): 2.9%
% of isolates with MBC:MIC ratio 8 (S. pneumoniae): 0.0%
% of isolates with MBC:MIC ratio ≧16 (S. pneumoniae): 0.0%
MIC Range (S. pneumoniae; recent ocular isolates): 0.015 to 0.5 µg/mL
MIC50 (S. pneumoniae; [9]): 0.06 µg/mL
MIC90 (S. pneumoniae; [9]): 0.06 µg/mL
MIC Range (Staphylococcus aureus; [10]): 0.03 to 4 µg/mL
MIC Range (Staphylococcus aureus; [11]): 0.015 to 0.25 µg/mL
MIC Range (Staphylococcus aureus; Staphylococcus aureus (MRSA, N = 11)): 0.015 to 4 µg/mL
MIC Range (Staphylococcus aureus; Staphylococcus aureus (MSSA, N = 19)): 0.015 to 4 µg/mL
MIC Range (Staphylococcus aureus; [12]): 0.015 to 4 µg/mL
MIC50 (Staphylococcus aureus; [13]): 0.5 µg/mL (≈ 1.27 µM)
MIC90 (Staphylococcus aureus; [13]): 4 µg/mL (≈ 10.2 µM)
MIC50 (Staphylococcus aureus; [14]): 0.015 µg/mL (≈ 0.0381 µM)
MIC90 (Staphylococcus aureus; [14]): 0.25 µg/mL (≈ 0.635 µM)
MIC50 (Staphylococcus aureus; [10]): 0.25 µg/mL (≈ 0.635 µM)
MIC90 (Staphylococcus aureus; [10]): 4 µg/mL (≈ 10.2 µM)
MIC50 (Staphylococcus aureus; [11]): 0.015 µg/mL (≈ 0.0381 µM)
MIC90 (Staphylococcus aureus; [11]): 0.12 µg/mL (≈ 0.305 µM)
MIC50 (Staphylococcus aureus; [12]): 0.12 µg/mL (≈ 0.305 µM)
MIC90 (Staphylococcus aureus; [12]): 4 µg/mL (≈ 10.2 µM)
